Experimental data as given in paper PMC6339655 (International Journal of Nanomedicine, 2019).
Converted amounts (≈) assume the structure as drawn.

Test system: C. albicans (ATCC-90028)
Assay: MIC by colony-forming assay
Format: cell-based
Settings: Candida albicans, ATCC90028, 48 h

- MIC: 64 µg/mL (≈ 96.1 µM)
Compound: C[C@@H]1C/C=C/C=C/C=C/C=C/[C@H](O[C@@H]2O[C@H](C)[C@@H](O)[C@H](N)[C@@H]2O)C[C@@H]2O[C@](O)(C[C@@H](O)C[C@H]3O[C@@H]3/C=C/C(=O)O1)C[C@H](O)[C@H]2C(=O)O [natamycin]
